According to patent publication US20080096897A1, “5-(1,1'Biphenyl)-4-Yl-5-(4-(4-Aminoacylphenyl)-Piperazin)-1-Yl-Pyrimidine-2,4,6,-Trione Derivatives, As Inhibitors Of Zinc Metallondopeptidases, Their Preparation And Use” (priority 2004, published 2008):
pIC50: −log10 of the molar value. Read-outs that look alike come from different tables or passages of the source.

Key:
recombinant human MMP16 = recombinant human MMP16 (Homo sapiens, UniProt P51512); test: MMP inhibition on isolated enzymes, fluorigenic peptide substrate; type: biochemical
Chain of recombinant human MMP16 (P51512 120-607): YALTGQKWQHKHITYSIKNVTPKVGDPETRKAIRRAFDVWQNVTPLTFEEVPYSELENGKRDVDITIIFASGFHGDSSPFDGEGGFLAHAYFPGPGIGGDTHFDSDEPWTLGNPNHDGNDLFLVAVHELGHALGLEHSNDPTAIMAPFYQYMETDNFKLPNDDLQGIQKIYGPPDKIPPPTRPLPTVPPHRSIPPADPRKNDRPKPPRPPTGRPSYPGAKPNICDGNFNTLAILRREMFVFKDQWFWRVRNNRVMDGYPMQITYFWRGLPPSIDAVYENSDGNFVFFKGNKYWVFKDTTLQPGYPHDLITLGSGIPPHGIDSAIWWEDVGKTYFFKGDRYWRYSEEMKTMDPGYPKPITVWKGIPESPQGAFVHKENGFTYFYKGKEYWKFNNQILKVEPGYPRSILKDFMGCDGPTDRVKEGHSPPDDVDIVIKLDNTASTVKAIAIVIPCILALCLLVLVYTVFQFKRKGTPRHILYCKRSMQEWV
Text: (§1) The matrix metalloproteinase (MMP) inhibitory activity has been evaluated in a classical biochemical assay using fluorigenic peptide substrates. Briefly, a peptide bearing 1) a fluorescent group and 2) a quenching group bound to another amino acid of the peptide is submitted to the proteolytic action of an MMP. The cleavage of peptide bounds due to the MMP results in a dequenching of the fluorescent group. There is a direct relationship between the observed fluorescence and the activity of the enzyme. The MMP inhibiting activity of a given substance can then be assessed using this assay.
(§2) The compounds of the present invention have been assayed using this assay design with recombinant human MMP2, MMP14 and MMP16 and the peptide ZGly-Gly-ArgAMC, which is a well-known, commercially available substrate of MMPs.
(§3) The following IC50 values (inhibitor concentration required to inhibit 50% of the enzyme) have been obtained with the compounds prepared according to examples 2 to 5 and compared to a product of the state of the art, better known as Ro 28-2653. Ro 28-2653 is included in claim 1 of WO 01/25217.

recombinant human MMP14 = recombinant human MMP14 (Homo sapiens, UniProt P50281); test: as above; type: biochemical
Text: as §1, §2, §3

recombinant human MMP2 = molecular target: T1, recombinant human MMP2 (Homo sapiens, UniProt P08253); test: as above; type: biochemical
T1 sequence (P08253 110-660): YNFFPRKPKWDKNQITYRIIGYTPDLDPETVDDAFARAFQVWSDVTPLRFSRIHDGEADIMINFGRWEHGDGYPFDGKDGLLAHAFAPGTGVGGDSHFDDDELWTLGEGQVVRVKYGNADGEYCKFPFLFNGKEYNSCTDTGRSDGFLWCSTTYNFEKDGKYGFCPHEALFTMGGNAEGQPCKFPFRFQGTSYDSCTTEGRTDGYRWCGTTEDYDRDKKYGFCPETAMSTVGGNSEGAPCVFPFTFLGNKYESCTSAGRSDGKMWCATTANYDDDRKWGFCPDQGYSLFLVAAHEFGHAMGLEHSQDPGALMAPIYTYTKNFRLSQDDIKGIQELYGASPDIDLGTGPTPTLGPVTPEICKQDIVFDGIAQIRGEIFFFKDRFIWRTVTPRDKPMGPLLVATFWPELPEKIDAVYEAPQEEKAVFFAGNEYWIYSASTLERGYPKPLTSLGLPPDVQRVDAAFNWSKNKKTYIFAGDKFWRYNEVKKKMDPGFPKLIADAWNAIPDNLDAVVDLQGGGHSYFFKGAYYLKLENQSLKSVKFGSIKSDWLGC
Text: as §1, §2, §3

[1] = tested on: capillary vessel outgrowth from aorta rings; test: aorta ring angiogenesis assay; type: cell-based; details: 10 μM in culture medium, rat aorta rings in collagen, 6-9 days
Procedure: Compound 5-(1,1′-biphenyl)-4-yl-5-{4-[4-(2,5-dioxopyrrolidin-1-yl)phenyl]piperazin-1-yl}pyrimidine-2,4,6(1H,3H,5H)-trione prepared according to example 4 has also been assayed in an aorta ring angiogenesis assay.
Briefly, in the aorta ring assay, fresh slices (ring) of aorta dissected from rat were embedded in collagen1 and then cultivated in Petri dishes after addition of culture medium (n=6). […] The effect of the compound of example 4 (10 μM) on angiogenesis was evaluated by its potency to stimulate or to inhibit the outgrowth of the capillary vessels when it was added to the culture medium (n=6).

Compound	pIC50 (recombinant human MMP16)	pIC50 (recombinant human MMP14)	pIC50 (recombinant human MMP2)	effect on capillary vessel outgrowth (angiogenesis) [1]	IC50 (recombinant human MMP16; recombinant human MMP16, substrate ZGly-Gly-ArgAMC, read-out: IC50 (nM) values on isolated enzymes MMP-16)	IC50 (recombinant human MMP14; recombinant human MMP14, substrate ZGly-Gly-ArgAMC, read-out: IC50 (nM) values on isolated enzymes MMP-14)	IC50 (recombinant human MMP2; recombinant human MMP2, substrate ZGly-Gly-ArgAMC, read-out: IC50 (nM) values on isolated enzymes MMP-2)
O=C1NC(=O)C(c2ccc(-c3ccccc3)cc2)(N2CCN(c3ccc([N+](=O)[O-])cc3)CC2)C(=O)N1 [Ro 28-2653, reference compound]	7.04	7.02	6.61				
O=C(O)CCC(=O)Nc1ccc(N2CCN(C3(c4ccc(-c5ccccc5)cc4)C(=O)NC(=O)NC3=O)CC2)cc1 [example 2, N-{4-[4-(5-(1,1′-Biphenyl)-4-yl-2,4,6-trioxoperhydropyrimidin-5-yl)piperazin-1-yl]-phenyl}succinamic acid]	7.41	7.54	6.96				
O=C(O)CCCC(=O)Nc1ccc(N2CCN(C3(c4ccc(-c5ccccc5)cc4)C(=O)NC(=O)NC3=O)CC2)cc1 [example 3, 4-{4-[4-(5-(1,1′-Biphenyl)-4-yl-2,4,6-trioxoperhydropyrimidin-5-yl)piperazin-1-yl]-phenylcarbamoyl}butyric acid]	7.31	7.59	7.01				
O=C1NC(=O)C(c2ccc(-c3ccccc3)cc2)(N2CCN(c3ccc(N4C(=O)CCC4=O)cc3)CC2)C(=O)N1 [example 4, 5-(1,1′-Biphenyl)-4-yl-5-{4-[4-(2,5-dioxopyrrolidin-1-yl)phenyl]piperazin-1-yl}pyrimidine-2,4,6(1H,3H,5H)-trione]	7.68	7.89	7.12	severely inhibit the capillary vessel outgrowth			
O=C1CCC(=O)N(c2ccc(N3CCN(C4(c5ccc(-c6ccccc6)cc5)C(=O)NC(=O)NC4=O)CC3)cc2)C1 [example 5, 5-(1,1′-Biphenyl)-4-yl-5-{4-[4-(2,5-dioxopiperidin-1-yl)phenyl]piperazin-1-yl}pyrimidine-2,4,6(1H,3H,5H)-trione]					20 nM	23 nM	93 nM
